One series addresses T1, Acyl-CoA desaturase 1 (Rattus norvegicus, UniProt P07308).
T1 sequence (P07308 whole entry): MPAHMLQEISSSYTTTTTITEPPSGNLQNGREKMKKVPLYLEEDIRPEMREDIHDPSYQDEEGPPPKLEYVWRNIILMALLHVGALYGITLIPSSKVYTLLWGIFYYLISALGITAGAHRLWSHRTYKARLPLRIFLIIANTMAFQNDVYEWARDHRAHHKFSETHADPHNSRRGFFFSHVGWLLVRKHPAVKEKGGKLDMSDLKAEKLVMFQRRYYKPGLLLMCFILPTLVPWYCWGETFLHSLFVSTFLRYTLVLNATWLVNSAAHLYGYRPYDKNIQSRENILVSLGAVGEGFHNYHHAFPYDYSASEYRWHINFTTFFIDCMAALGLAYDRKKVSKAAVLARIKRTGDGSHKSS
Nature of the series: Inhibition of stearoyl-CoA delta9 desaturase in rat microsome.

Series [1] concerns the target Acyl-CoA (8-3)-desaturase (Rattus norvegicus, UniProt Q920R3). Nature of the series: Inhibition of stearoyl-CoA delta5 desaturase in rat microsome.
Series [2] deals with Rattus norvegicus. The experiment in a line: Dose normalized AUC in Sprague-Dawley rat at 1 mg/kg, po. The note with it: in vivo. More on the design: dose 1 mg/kg, route oral. It is filed as ADME, organism-based.
Series [3] can be described thus: Apparent permeability from basolateral to apical side of human Caco-2 cells. It is filed as ADME, cell-based. For orientation: Caco-2 cells form a polarised layer with tight junctions and transporters.
A short description of series [4]: Terminal volume of distribution in Sprague-Dawley rat at 1.5 mg/kg, po and 1 mg/kg, iv. It is filed as ADME, organism-based. The note with it: in vivo, read-out: Vbeta.
The nature of series [5]: Elimination half life in Sprague-Dawley rat at 1 mg/kg, iv. The note with it: in vivo, read-out: beta t1/2 (converted). It is filed as ADME, organism-based. More on the design: dose 1 mg/kg, route intravenous.
The subject of series [6] is Rattus norvegicus. Nature of the series: Inhibition of stearoyl-CoA delta9 desaturase in high-carbohydrate diet-fed Sprague-Dawley rat dosed orally BID for 5 days assessed as reduction in liver palmitoleic and vaccenic acid level. It is filed as functional, organism-based.
Series [7] can be described thus: Metabolic stability in human liver microsome after 30 mins. It is filed as ADME. The settings on record: liver microsomes, read-out: Stability.
The subject of series [8] is Rattus norvegicus. Nature of the series: Reduction in liver triglyceride level in high-carbohydrate diet-fed Sprague-Dawley rat at 20 mg/kg, po, BID after 5 days measured after 4 hrs of last dose relative to control. It is filed as functional. More on the design: scale not given: the % may be the effect or the level left.
For another series, the target named is Acyl-CoA 6-desaturase (Rattus norvegicus, UniProt Q9Z122). Nature of the series: Inhibition of stearoyl-CoA delta6 desaturase in rat microsome.
Series [9] is described as follows: Metabolic stability in Sprague-Dawley rat liver microsome after 30 mins. The settings on record: liver microsomes, read-out: Stability. It is filed as ADME. Background: Liver microsomes are vesicles of endoplasmic reticulum, rich in cytochrome P450 enzymes.
Series [10] is described as follows: Oral bioavailability in Sprague-Dawley rat at 1.5 mg/kg. The note with it: in vivo. It is filed as ADME, organism-based.
A short description of series [11]: Plasma clearance in Sprague-Dawley rat plasma at 1 mg/kg, iv. It is filed as ADME, organism-based. Also on record: dose 1 mg/kg, route intravenous.
Series [12] deals with Rattus norvegicus. Nature of the series: Inhibition of stearoyl-CoA delta9 desaturase in high-carbohydrate diet-fed Sprague-Dawley rat dosed orally BID for 5 days assessed as reduction in plasma palmitoleic and vaccenic acid level. It is filed as functional, organism-based.
A short description of series [13]: Apparent permeability from apical to basolateral side of human Caco-2 cells. It is filed as ADME, cell-based.
Series [14] in a line: Cmax in Sprague-Dawley rat at 1.5 mg/kg, po. More on the design: dose 1.5 mg/kg, route oral. It is filed as ADME, organism-based. The settings on record: in vivo.
A further series deals with T2, Stearoyl-CoA desaturase (Homo sapiens, UniProt O00767).
T2 sequence (O00767 whole entry): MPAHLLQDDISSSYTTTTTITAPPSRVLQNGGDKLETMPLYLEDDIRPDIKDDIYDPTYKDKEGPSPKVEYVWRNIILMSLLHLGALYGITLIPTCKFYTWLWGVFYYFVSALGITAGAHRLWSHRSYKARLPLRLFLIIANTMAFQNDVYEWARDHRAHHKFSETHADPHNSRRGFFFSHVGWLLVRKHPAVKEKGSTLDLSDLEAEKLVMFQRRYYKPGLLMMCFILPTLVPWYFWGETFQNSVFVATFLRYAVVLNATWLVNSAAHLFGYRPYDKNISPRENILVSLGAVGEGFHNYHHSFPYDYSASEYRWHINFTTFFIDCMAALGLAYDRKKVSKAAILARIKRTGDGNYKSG
The experiment in a line: Inhibition of stearoyl-CoA delta9 desaturase in human HepG2 cells. It is filed as cell-based.

Molecules are shown by their SMILES.

What is called IC50 is the point on the concentration scale where inhibition reaches its midpoint. As a reminder, the AUC is concentration integrated over time. For orientation: Papp B→A means the apparent permeability from the basolateral to the apical side of a cell layer. For orientation: bioavailability means the share of a dose that reaches the circulation, judged against a reference dose that is usually intravenous. What is called clearance is the volume of plasma or blood freed of the substance per unit of time. The Papp A→B is the apparent permeability from the apical to the basolateral side of a cell layer. A word on the Cmax: it is the maximum level reached in the sampled fluid or tissue.

Chain of Acyl-CoA (8-3)-desaturase (Q920R3 whole entry): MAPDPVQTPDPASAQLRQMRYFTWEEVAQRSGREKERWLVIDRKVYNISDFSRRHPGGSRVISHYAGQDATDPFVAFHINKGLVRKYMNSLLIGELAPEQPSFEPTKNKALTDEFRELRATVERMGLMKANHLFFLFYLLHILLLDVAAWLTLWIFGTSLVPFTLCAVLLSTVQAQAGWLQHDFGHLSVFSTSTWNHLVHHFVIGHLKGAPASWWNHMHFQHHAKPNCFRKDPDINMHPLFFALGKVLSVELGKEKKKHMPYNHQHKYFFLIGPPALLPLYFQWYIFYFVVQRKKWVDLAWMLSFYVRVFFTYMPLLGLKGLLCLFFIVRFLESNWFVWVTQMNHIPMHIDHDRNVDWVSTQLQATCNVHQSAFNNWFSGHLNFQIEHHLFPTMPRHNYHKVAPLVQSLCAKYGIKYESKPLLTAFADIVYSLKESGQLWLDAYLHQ
Chain of Acyl-CoA 6-desaturase (Q9Z122 whole entry): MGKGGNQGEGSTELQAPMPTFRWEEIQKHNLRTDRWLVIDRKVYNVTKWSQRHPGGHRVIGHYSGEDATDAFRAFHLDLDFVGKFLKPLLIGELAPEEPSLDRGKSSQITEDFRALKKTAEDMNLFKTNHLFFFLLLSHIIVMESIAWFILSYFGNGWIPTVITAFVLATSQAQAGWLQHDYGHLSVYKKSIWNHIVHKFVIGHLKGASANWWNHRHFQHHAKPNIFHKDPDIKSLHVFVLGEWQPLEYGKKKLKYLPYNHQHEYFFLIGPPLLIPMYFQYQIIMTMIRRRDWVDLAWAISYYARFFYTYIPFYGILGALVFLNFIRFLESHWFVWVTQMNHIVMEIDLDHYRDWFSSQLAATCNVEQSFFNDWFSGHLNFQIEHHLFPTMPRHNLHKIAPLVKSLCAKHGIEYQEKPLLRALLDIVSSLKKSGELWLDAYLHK

Take `Cc1nc2ccc(NCc3cccc(C(F)(F)F)c3)cc2n(CCNC(=O)[C@H](C)O)c1=O`: the IC50 at Acyl-CoA desaturase 1 was 8000 nM.

Turning to `Cc1nc2ccc(NCc3cccc(C(F)(F)F)c3)cc2n(CCNC(=O)CO)c1=O`, the results for the IC50 (in series [1]; against Acyl-CoA 6-desaturase; against Acyl-CoA desaturase 1) were greater than 30000 nM, greater than 30000 nM and 38 nM, respectively. The same compound had an AUC in the series on Rattus norvegicus [2] of 148 ng·h/mL. Also, in [3], the Papp B→A turned out to be 48.2 ×10⁻⁶ cm/s. Further, the Vd in [4] was 7.22 L/kg. The half-life in [5] is 0.95 h. Further, the Activity result in the series on Rattus norvegicus [6] is “Dose-dependent effect”; in the series on Rattus norvegicus [8] it was 50%; in the series on Rattus norvegicus [12] it was “Dose-dependent effect”. Also, the remaining at 0.5 h in series [7] came to 56%; in series [9] it was 54%. In series [10], this compound showed a bioavailability of 78%. Also, in series [11], the clearance was 88.1 mL/min/kg. For the same compound, in series [13], the Papp A→B came to 6.8 ×10⁻⁶ cm/s. The concentration in [14] peaked (Cmax) at 374 ng/mL.

In the case of `CC1Oc2ccc(NCc3ccc(Cl)c(Cl)c3)cc2N(CCNC(=O)CO)C1=O` (racemic), the remaining at 0.5 h in [7] was determined as 2.3%; in [9] it was 1.5%. This compound also returned an IC50 against Acyl-CoA desaturase 1 of 80 nM.

On to `Cc1nc2ccc(NCc3cccc(C(F)(F)F)c3)cc2n(CCNC(N)=O)c1=O`, for which the 50% inhibitory concentration (IC50) is greater than 1000 nM against Stearoyl-CoA desaturase and 15 nM against Acyl-CoA desaturase 1.

Consider `CC(C)(C)c1nc2ccc(NCc3cccc(C(F)(F)F)c3)cc2n(CCNC(=O)CO)c1=O`, for which, at Acyl-CoA desaturase 1, the IC50 is greater than 3000 nM.

With `CC1(C)Oc2ccc(NCc3ccc(Cl)c(Cl)c3)cc2N(CCNC(=O)CO)C1=O`, the remaining at 0.5 h in [7] came out at 3.1%; in series [9], 9.6%. Also, the IC50 at Acyl-CoA desaturase 1 is 12 nM.

`Cc1nc2ccc(NCc3cccc(C(F)(F)F)c3)cc2n(CCNC(=O)CCO)c1=O` displayed a half-maximal inhibitory concentration (IC50) on Acyl-CoA desaturase 1 of 1100 nM.

In the case of `O=C(CO)NCCN1C(=O)COc2ccc(NCc3ccc(Cl)c(Cl)c3)cc21`, in the series on Rattus norvegicus [2], the AUC was determined as 122 ng·h/mL. The Vd in [4] is 4.89 L/kg. In addition, in series [5], the half-life is 1.07 h. Further, at Stearoyl-CoA desaturase, the half-inhibitory concentration (IC50) was 0.5 nM. The remaining at 0.5 h was determined as 32% in [7] and 14% in series [9]. Moreover, the bioavailability in [10] is 39%. In series [11], the clearance stood at 53 mL/min/kg. Also, the maximum concentration (Cmax) in [14] is 427 ng/mL.

With `O=C(CO)NCCn1c(=O)c(C(F)(F)F)nc2ccc(NCc3cccc(C(F)(F)F)c3)cc21`, the half-maximal inhibitory concentration (IC50) worked out at 2.7 nM on Stearoyl-CoA desaturase and 1.9 nM against Acyl-CoA desaturase 1. For the same compound, the remaining at 0.5 h in series [7] turned out to be 19%; in [9], 77%.

As to `O=C(CO)Nc1ccc2ncn(Cc3ccc(Cl)c(Cl)c3)c(=O)c2c1`, the AUC with Rattus norvegicus [2] turned out to be 935 ng·h/mL. Moreover, the Vd in series [4] worked out at 2.06 L/kg. On Stearoyl-CoA desaturase, the 50% inhibitory concentration (IC50) is 119 nM. Besides, the Cmax in series [14] is 360 ng/mL.

`CC(=O)NCCn1c(=O)c(C)nc2ccc(NCc3cccc(C(F)(F)F)c3)cc21` came in with an IC50 against Acyl-CoA desaturase 1 of 162 nM.

On to `CC(C)c1nc2ccc(NCc3cccc(C(F)(F)F)c3)cc2n(CCNC(=O)CO)c1=O`, for which the IC50 on Acyl-CoA desaturase 1 stood at 2800 nM.

Consider `COc1ccc(-c2nc3ccc(NCc4ccc(Cl)c(Cl)c4)cc3n(CCNC(C)=O)c2=O)cc1`, for which the area under the curve (AUC) in the series on Rattus norvegicus [2] came out at 0 ng·h/mL. Besides, the remaining at 0.5 h was 83% in series [7] and 54% in series [9]. Besides, the IC50 against Acyl-CoA desaturase 1 is 110 nM.

On to `COc1ccc(-c2nc3ccc(NCc4ccc(Cl)c(C(F)(F)F)c4)cc3n(CCNC(C)=O)c2=O)cc1`, for which half-maximal inhibition against Acyl-CoA desaturase 1 (IC50) required 0.6 nM.

For `O=C(CO)Nc1ccc2ncn(Cc3ccc(Cl)c(C(F)(F)F)c3)c(=O)c2c1`, in the series with Rattus norvegicus [2], the AUC amounted to 451 ng·h/mL. The Vd in series [4] is 1.46 L/kg. Also, the maximum concentration (Cmax) in series [14] stood at 439 ng/mL.

`Cc1nc2ccc(NCc3cccc(C(F)(F)F)c3)cc2n(CCNC(=O)[C@@H](C)O)c1=O` showed a half-maximal inhibitory concentration (IC50) against Acyl-CoA desaturase 1 of 3900 nM.

For the compound `Cc1nc2ccc(NCc3cccc(C(F)(F)F)c3)cc2n(CCNC(=O)C(O)CO)c1=O` (racemic), the IC50 on Stearoyl-CoA desaturase worked out at 68 nM; at Acyl-CoA desaturase 1, 268 nM.

Consider `COc1ccc(-c2nc3ccc(NCc4cccc(C(F)(F)F)c4)cc3n(CCNC(C)=O)c2=O)cc1`, for which the concentration for half-maximal inhibition (IC50) amounted to 33 nM at Stearoyl-CoA desaturase and 93 nM on Acyl-CoA desaturase 1.

The values above are taken from ChEMBL document CHEMBL1154111, “Potent, orally bioavailable, liver-selective stearoyl-CoA desaturase (SCD) inhibitors” (Bioorg Med Chem Lett, 2009).
